Patent US20040068006A1, “Method for preventing acute renal failure” (Critical Therapeutics, Inc., priority 2001, published 2004)

Test system: sepsis-induced acute renal failure
Assay: Cecal ligation puncture (CLP) sepsis-induced acute renal failure in aged mice
Assay type: in vivo, mouse
Details: for HPLC creatinine: mean±SE
Procedure: Animal care followed NIH criteria for the care and use of laboratory animals in research. Young (7-8 weeks) and aged (42-44 weeks) male C57BL/6 mice [National Institutes of Health (NIH), Frederick, Md.] had free access to water and chow (NIH-07) Rodent chow, Zeigler Bros., Gardners, Pa.) before and after surgery.
Aged mice were anesthetized with 100 mg/kg ketamine, 10 mg/kg xylazine, and 1 mg/kg acepromazine IM. After laparotomy, a 5-0 silk ligature was placed 5 mm from the cecal tip. The cecum was punctured twice with a 21-gauge needle and gently squeezed to express a 1 mm column of fecal material. In sham operated animals, the cecum was located, but neither ligated nor punctured. The abdominal incision was closed in two layers with 6-0 nylon sutures. After surgery, one ml of pre-warmed normal saline was given IP. All animals received a broad spectrum antibiotic (imipenem/cilastatin; 25 mg/kg SC), then 1.5 ml of 3/4 saline was administered at 6 and 18 hr after surgery by SC injection. At the time of sacrifice, blood was collected from abdominal aorta for measurement of blood chemistries. The kidneys were harvested for histological and mechanistic studies.
Survival after surgery was assessed every 6 hr within the first 48 hr and then every 8 hr for 4 days. Antibiotic injection and fluid resuscitation were started 6 hr after CLP by SC injection, and then repeated every 12 hr for 4 days.
Animals received 0.4 ml of Ringers lactate (RL) [130 mM Na+, 4 mM K+, 2.7 mM Ca+, 109 mM Cl^−, and 28 mM lactate] or a similar volume of freshly-made Ringers ethyl pyruvate (EP) where EP (Sigma) was substituted for sodium lactate. A single dose was injected IP at 0, 6, or 12 hr after CLP surgery.
Serum levels of blood urea nitrogen (BUN), aspartate transaminase (AST), alanine transaminase (ALT), amylase, creatine kinase (CK) and lactate dehydrogenase (LDH) were measured using an autoanalyzer (Hitachi 917, Boehringer Mannheim, Indianapolis, MN). Serum creatinine were measured by a picric acid-based colorimetric kinetic autoanalyzer (Astra 8 autoanalyzer; Beckman Instruments, Fullerton, Calif.). Serum […] was also measured by high-performance liquid chromatography (HPLC) Johns et al., B Biomed. Sci. Appl. 759:343 (2001)). Acetonitrile was added to serum, centrifuged, and the supernatant fraction was dried, resuspended in 5 mM sodium acetate pH 5.1, and chromatrographed isocratically on a PRP-X200 cation exchange column (Hamilton, Reno Nev.) and detected by UV absorbance at 234 nm (Agilent Technologies, Palo Alto, Calif.).
10% Formalin-fixed and paraffin-embedded kidney sections were stained with periodic acid-Schiff reagent (PAS) or naphthol AS-D chloroacetate esterase (Sigma; St. Louis, Mo.). Histological changes in the cortex and in the outer stripe of the outer medulla (OSOM) were assessed by quantitative measurements of tissue damage. Tubular damage was defined as tubular epithelial swelling, loss of brush border, vacuolar degeneration, necrotic tubules, cast formation, and desquamation. The degree of kidney damage was estimated at 400× magnification using 5 randomly selected fields for each animal by the following criteria: 0, normal; 1, areas of damage <25% of tubules; 2, damage involving 25-50% of tubules, 3, damage involving 50 to 75% of tubules; 4, 75-100% of the area being affected.
All data are expressed as means±SE. Differences between groups were examined for statistical significance by ANOVA with a multiple comparison correction (StatView 4.5, Berkeley, Calif.; or SigmaStat 2.0, SPSS, San Rafael, Calif.). A P value <0.05 was accepted as statistically significant.

In the case of `CCOC(=O)C(C)=O` [EP, ethyl pyruvate], the “tubular damage in cortex and OSOM” value (EP at 0, 6 or 12 hr after CLP, measured at 24 hr) is reported as “significantly reduced the tubular damage”, the HPLC creatinine (higher dose (40 mg/kg) EP, single IP dose delayed until 6 hr after surgery) is reported as 0.13 ± 0.01 mg/dL and the HPLC creatinine (higher dose (40 mg/kg) EP, single IP dose delayed until 12 hr after surgery) is reported as 0.17 ± 0.03 mg/dL. For the same molecule, the HPLC creatinine (single IP dose 8 mg/kg EP after CLP surgery (0 hr), RL vehicle 0.33±0.07 mg/dl) was 0.17 ± 0.02 mg/dL, the HPLC creatinine (single IP dose 40 mg/kg EP after CLP surgery (0 hr), RL vehicle 0.33±0.07 mg/dl) was 0.14 ± 0.02 mg/dL and the “renal injury as measured by BUN or HPLC creatinine” value (single dose of either 8 or 40 mg/kg EP after surgery, vs. RL) was “significantly prevented the renal injury”. For the same molecule, the acute renal failure (summary statement referring to Example 1) was “inhibits acute renal failure”, the “therapeutic window for sepsis-induced acute renal failure” value (treatment start after CLP surgery) was no less than 12 h and the “amount of protection for tubular injury score” value (without much change with delayed treatment (up to 12 hr)) was 60-80%.
